Here are results for 45 compounds from patent US9714243B2, “4-pyridinonetriazine derivatives as HIV integrase inhibitors” (Merck Sharp & Dohme Corp., priority 2012, dated 2017).

For this assay, the system named is HIV-1 (NL4-3 strain). As to the kind of experiment: Assay for inhibition of HIV replication (ViKinG; infected MT4-GFP cells). The format is cell-based. The essentials: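 MT4-GFP cells infected with NL4-3 at low MOI for 24 h, washed, then exposed to serially diluted compound (0.4% DMSO) in RPMI. GFP+ cells counted at 24 and 48 h; R0 = 48 h/24 h ratio, inhibition normalised to DMSO and triple-drug controls, IC50 from 4-parameter fit.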

Setting [1] is: Human immunodeficiency virus 1, NL43, MT4-GFP cells infected with HIV-1 NL4-3, 0% normal human serum (NHS), read-out: ViKinG IP (nM) with 0% NHS.
Setting [2] is: Human immunodeficiency virus 1, NL43, MT4-GFP cells infected with HIV-1 NL4-3, 100% normal human serum (NHS), read-out: ViKinG IP (nM) with 100% NHS.
Setting [3] is: MT4-GFP cells infected with HIV-1 NL4-3, 0% normal human serum (NHS), read-out: ViKinG IP (nM) with 0% NHS.
Where [4] appears, read: MT4-GFP cells infected with HIV-1 NL4-3, 10% normal human serum (NHS), read-out: ViKinG IP (nM) with 10% NHS.
The mark [5] stands for this setting: MT4-GFP cells infected with HIV-1 NL4-3, 100% normal human serum (NHS), read-out: ViKinG IP (nM) with 100% NHS.
The mark [6] stands for this setting: Human immunodeficiency virus 1, NL43, MT4-GFP cells infected with HIV-1 NL4-3, 10% normal human serum (NHS), read-out: ViKinG IP (nM) with 10% NHS.

Read-outs that look alike come from different tables or passages of the source.

For `CCOC1CCC2(CC1)Cn1cc(C(=O)NCc3ccc(F)cc3F)c(=O)c(O)c1C(=O)N2CC` (centres unmarked) [Compound 182], the IC50 by setting is: under setting [1], 4.02 nM; under setting [2], 45.5 nM.

Consider `COCCN1C(=O)c2c(O)c(=O)c(C(=O)NCc3ccc(F)cc3F)cn2CC12CCC2` [Compound 177], for which the IC50 is, setting by setting: under setting [1], 5.03 nM; under setting [2], 4790 nM.

With `CCN1C(=O)c2c(O)c(=O)c(C(=O)NCc3ccc(F)cc3F)cn2N(C)[C@@]12CC[C@@H]1C[C@@H]12` [Compound 189], the IC50 runs as follows: under setting [1], 3.62 nM; under setting [2], 626 nM.

Turning to `CCO[C@H]1CC[C@@]2(CC1)N(CC)C(=O)c1c(O)c(=O)c(-c3nnc(Cc4ccc(F)cc4F)s3)cn1N2C` [Compound 9], the IC50 under setting [1] is 5.06 nM and the IC50 under setting [2] is 141 nM.

For the compound `CN1C(=O)c2c(O)c(=O)c(C(=O)NCc3ccc(F)cc3F)cn2CC12CC2` [Compound 174], the IC50 is, setting by setting: under setting [1], 2.87 nM; under setting [2], 125 nM.

Take `COCCN1C(=O)c2c(O)c(=O)c(C(=O)NCc3ccc(F)cc3F)cn2[C@@H](C)C12CC2` [Compound 183]: the IC50 under setting [1] was found to be 3.17 nM and the IC50 under setting [2] worked out at 188 nM.

On to `CCN1C(=O)c2c(O)c(=O)c(-c3nnc(Cc4ccc(F)cc4)s3)cn2N(C)C12CCC(P(=O)(O)O)C2` (centres unmarked) [Compound 87], for which the IC50 under setting [1] is 626 nM and the IC50 under setting [2] was found to be 2890 nM.

As to `COC1(C)CCC2(CC1)N(C)C(=O)c1c(O)c(=O)c(-c3nnc(Cc4ccc(F)cc4F)s3)cn1N2C` (centres unmarked) [Compound 73], the IC50 is, setting by setting: under setting [3], 7.04 nM; under setting [4], 11.9 nM.

Consider `COC1CCC2(CC1)Cn1cc(C(=O)NCc3ccc(F)cc3F)c(=O)c(O)c1C(=O)N2C` (centres unmarked) [Compound 181], for which the IC50 runs as follows: under setting [1], 2.48 nM; under setting [2], 28.9 nM.

`CN1C(=O)c2c(O)c(=O)c(-c3nnc(Cc4ccc(F)cc4F)s3)cn2N(C)C12CCC(C(=O)NCC(F)(F)F)CC2` (centres unmarked) [Compound 112]: the IC50 came out at 3.36 nM under setting [3] and 11.1 nM under setting [4].

For `CCN1C(=O)c2c(O)c(=O)c(-c3nnc(Cc4ccc(F)cc4F)s3)cn2N(C)C12CCC(C(=O)N(C)C)CC2` (centres unmarked) [Compound 101], the IC50 under setting [4] was 37.5 nM.

For the compound `CN1C(=O)c2c(O)c(=O)c(C(=O)NCc3ccc(F)cc3F)cn2CC12CCC2` [Compound 178], the IC50 is 2.73 nM under setting [1] and 233 nM under setting [2].

As to `CCCOC1CCC2(CC1)N(CC)C(=O)c1c(O)c(=O)c(C(=O)NCc3ccc(F)cc3F)cn1N2C` (centres unmarked) [Compound 193], the IC50 is, setting by setting: under setting [3], 8.24 nM; under setting [5], 84.8 nM.

On to `CN(CC(F)(F)F)C(=O)C1CCC2(CC1)N(C)C(=O)c1c(O)c(=O)c(-c3nnc(Cc4ccc(F)cc4F)s3)cn1N2C` (centres unmarked) [Compound 108], for which the IC50 under setting [1] worked out at 24 nM, the IC50 under setting [6] was determined as 16.1 nM and the IC50 under setting [2] was found to be 478 nM.

On to `CN1C(=O)c2c(O)c(=O)c(-c3cn(Cc4ccc(F)cc4F)nn3)cn2CC12CCC2` [Compound 215], for which the IC50 is 9.93 nM under setting [1] and 76.1 nM under setting [2].

On to `CN1C(=O)c2c(O)c(=O)c(-c3nnc(Cc4ccc(F)cc4F)s3)cn2N(C)C12CCC(C)(CO)CC2` (centres unmarked) [Compound 86], for which the IC50 stood at 6.34 nM under setting [3], 94.3 nM under setting [4] and 185 nM under setting [5].

Turning to `CN1C(=O)c2c(O)c(=O)c(-c3nnc(Cc4ccc(F)cc4F)s3)cn2N(C)C12CCC(C(=O)NCC1CCOC1)CC2` (centres unmarked) [Compound 129], the IC50 under setting [3] stood at 67.7 nM and the IC50 under setting [4] turned out to be 1080 nM.

Turning to `CCN1C(=O)c2c(O)c(=O)c(-c3nnc(Cc4ccc(F)cc4F)s3)cn2N(C)C12CCC1(CCC(=O)N1)CC2` (centres unmarked) [Compound 22], under setting [6], the IC50 came to 292 nM.

`COC(=O)[C@@]12C[C@@H]1CCC21NC(=O)c2c(O)c(=O)c(-c3nnc(Cc4ccc(F)cc4F)s3)cn2N1C` (mixture of isomers) [Compound 204]: the IC50 is 2.81 nM under setting [1], 9.04 nM under setting [6] and 146 nM under setting [2].

Consider `CN1C(=O)c2c(O)c(=O)c(-c3nnc(Cc4ccc(F)cc4F)s3)cn2N(C)C12CC[C@@H](C(=O)NC1CC1)C(C)(C)C2` (some centres unmarked) [Compound 143], for which the IC50 is, setting by setting: under setting [3], 7.48 nM; under setting [5], 817 nM.

Regarding `CCN1C(=O)c2c(O)c(=O)c(-c3nnc(Cc4ccc(F)cc4F)s3)cn2N(C)C12CC[C@@H](C(=O)OC)[C@H](C)C2` (some centres unmarked) [Compound 33], the IC50 under setting [4] amounted to 29 nM.

Consider `CCN1C(=O)c2c(O)c(=O)c(-c3nnc(Cc4ccc(F)cc4F)s3)cn2CC12CCC2` [Compound 211], for which the IC50 by setting is: under setting [1], 10.3 nM; under setting [2], 2800 nM.

On to `CN1C2C(O)CCCN2C(=O)c2c(O)c(=O)c(-c3nnc(Cc4ccc(F)cc4F)s3)cn21` (centres unmarked) [Compound 165], for which the IC50 was 5.12 nM under setting [3] and 54 nM under setting [5].

As to `CCN1C(=O)c2c(O)c(=O)c(-c3nnc(Cc4ccc(F)cc4F)s3)cn2N(C)C12CC[C@H](C(=O)OC)[C@H](C)C2` (some centres unmarked) [Compound 31], the IC50 under setting [4] is 32.2 nM.

In the case of `CCN1C(=O)c2c(O)c(=O)c(-c3nnc(Cc4ccc(F)cc4F)s3)cn2N(C)C12CCC(OC)CC2` (centres unmarked) [Compound 27], the IC50 amounted to 9.24 nM under setting [3], 11.5 nM under setting [4] and 191 nM under setting [5].

With `CCN1C(=O)c2c(O)c(=O)c(-c3nnc(Cc4ccc(F)cc4F)s3)cn2N(C)C12CCC(C(=O)N(C)C)CC2` (centres unmarked) [Compound 100], the IC50 was determined as 7.51 nM under setting [1], 111 nM under setting [2] and 6.47 nM under setting [4].

Turning to `CCN1C(=O)c2c(O)c(=O)c(-c3nnc(Cc4ccc(F)cc4F)s3)cn2N(C)C1c1cccc(OC)n1` (racemic) [Compound 18], the IC50 reads like this: under setting [6], 38.7 nM; under setting [2], 1190 nM.

With `CCCOC1CCC2(CC1)N(CC)C(=O)c1c(O)c(=O)c(-c3nnc(Cc4ccc(F)cc4F)s3)cn1N2C` (centres unmarked) [Compound 61], the IC50 was 23.8 nM under setting [3] and 221 nM under setting [5].

With `CN1C(=O)c2c(O)c(=O)c(-c3nnc(Cc4ccc(F)cc4F)s3)cn2N(C)C12CCC(C(=O)NC1(C)CC1)CC2` (centres unmarked) [Compound 113], the IC50 is, setting by setting: under setting [3], 22.2 nM; under setting [4], 72.2 nM.

Regarding `CC1=CCC2(CC1)N(C)C(=O)c1c(O)c(=O)c(-c3nnc(Cc4ccc(F)cc4F)s3)cn1N2C` (racemic) [Compound 71], the IC50 came to 16.1 nM under setting [1] and 49.5 nM under setting [6].

With `COC1(C)CCC2(CC1)N(C)C(=O)c1c(O)c(=O)c(-c3nnc(Cc4ccc(F)cc4F)s3)cn1N2C` (centres unmarked) [Compound 72], the IC50 under setting [1] came out at 6.07 nM and the IC50 under setting [6] came to 9.93 nM.

Turning to `CN1C(=O)c2c(O)c(=O)c(-c3nnc(Cc4ccc(F)cc4F)s3)cn2N(C)C12CCC(C(=O)N1CCCC1)CC2` (centres unmarked) [Compound 116], the IC50 is, setting by setting: under setting [3], 3.94 nM; under setting [4], 15.2 nM.

In the case of `CN1C(=O)c2c(O)c(=O)c(-c3nnc(Cc4ccc(F)cc4F)s3)cn2N(C)C12CCC(C(=O)NCC1(O)CC1)CC2` (centres unmarked) [Compound 123], the IC50 by setting is: under setting [3], 47.1 nM; under setting [4], 103 nM.

For the compound `CCN1C(=O)c2c(O)c(=O)c(-c3nnc(Cc4ccc(F)cc4)s3)cn2N(CC(=O)N(C)C)C1(C)C` [Compound 171], the IC50 runs as follows: under setting [6], 21 nM; under setting [2], 673 nM.

As to `COc1cc(CNC(=O)C2CCC3(CC2)N(C)C(=O)c2c(O)c(=O)c(-c4nnc(Cc5ccc(F)cc5F)s4)cn2N3C)on1` (centres unmarked) [Compound 135], the IC50 is, setting by setting: under setting [6], 290 nM; under setting [3], 76.3 nM.

Take `CCN1C(=O)c2c(O)c(=O)c(-c3nnc(Cc4ccc(F)cc4)s3)cn2N(C)C1C1CC1` (racemic) [Compound 217]: the IC50 amounted to 66 nM under setting [6] and 1020 nM under setting [2].

Take `CN1C(=O)c2c(O)c(=O)c(-c3nnc(Cc4ccc(F)cc4F)s3)cn2N(C)C12CCC(C(=O)NCc1cnoc1)CC2` (centres unmarked) [Compound 127]: the IC50 is, setting by setting: under setting [1], 112 nM; under setting [4], 376 nM.

With `CN1C(=O)c2c(O)c(=O)c(-c3nnc(Cc4ccc(F)cc4F)s3)cn2N(C)C12CCC(C(=O)NCC1CCS(=O)(=O)C1)CC2` (centres unmarked) [Compound 138], the IC50 under setting [3] is 445 nM and the IC50 under setting [4] was 1180 nM.

Consider `CN1C(=O)c2c(O)c(=O)c(-c3nnc(Cc4ccc(F)cc4F)s3)cn2N(C)C12C[C@H]1CC(O)C[C@H]1C2` (some centres unmarked) [Compound 77], for which the IC50 was determined as 12.8 nM under setting [1] and 58 nM under setting [6].

With `CCN1C(=O)c2c(O)c(=O)c(-c3nnc(Cc4ccc(F)cc4F)s3)cn2N(C)C12CCC(OCCOCCOC)CC2` (centres unmarked) [Compound 66], the IC50 is, setting by setting: under setting [1], 12 nM; under setting [2], 93.9 nM.

In the case of `COC(=O)[C@]12C[C@H]1CCC21N(C)C(=O)c2c(O)c(=O)c(-c3nnc(C(C)c4ccc(F)cc4F)s3)cn2N1C` (some centres unmarked) [Compound 206], the IC50 runs as follows: under setting [1], 15.4 nM; under setting [6], 62.4 nM.

Turning to `CCOP(=O)(OCC)C1CCCC2(C1)N(CC)C(=O)c1c(O)c(=O)c(-c3nnc(Cc4ccc(F)cc4F)s3)cn1N2C` (centres unmarked) [Compound 25], the IC50 under setting [6] stood at 40.5 nM.

On to `CC(=O)NC1CCC2(CC1)N(C)C(=O)c1c(O)c(=O)c(-c3nnc(Cc4ccc(F)cc4F)s3)cn1N2C` (centres unmarked) [Compound 82], for which the IC50 came to 63.7 nM under setting [1] and 2560 nM under setting [2].

On to `CN1C2CCCCCN2C(=O)c2c(O)c(=O)c(-c3nnc(Cc4ccc(F)cc4F)s3)cn21` (racemic) [Compound 159], for which the IC50 under setting [6] was determined as 121 nM.

Turning to `CCN1C(=O)c2c(O)c(=O)c(-c3nnc(Cc4ccc(F)cc4F)s3)cn2N(C)C12CCC(C(=O)N(C)CC(F)(F)F)CC2` (centres unmarked) [Compound 102], the IC50 came out at 12.2 nM under setting [1] and 170 nM under setting [2].
